The structures appear in SMILES notation. ± gives the expanded uncertainty stated by the source.

The record followed here is the NIST ThermoML archive (doi:10.1016/j.jct.2018.08.033).

The conditions of data set [1]: Liquid; for mass density: 100 kPa, Vibrating tube method; for speed of sound: 101.33 kPa, Single path-length method.
Data set [2] is described as follows: xn = mol fraction of the nth substance listed. As to conditions: 100 kPa, Liquid, Vibrating tube method, x2 = 0.9938.

Regarding `OCCCO` [propan-1,3-diol], the mass density in data set [1] (283.15 K) is 1059.63 ± 1.4 kg/m3; in data set [1] (288.15 K), 1056.47 ± 1.4 kg/m3; in data set [1] (293.15 K) it was 1053.3 ± 1.4 kg/m3; in data set [1] (298.15 K), 1050.14 ± 1.4 kg/m3; in data set [1] (303.15 K), 1046.99 ± 1.4 kg/m3. Moreover, the speed of sound in data set [1] (283.15 K) is 1658.7 ± 2.4 m/s; in data set [1] (288.15 K) it was 1647.2 ± 2.4 m/s; in data set [1] (293.15 K), 1635.9 ± 2.4 m/s; in data set [1] (298.15 K), 1624.6 ± 2.4 m/s; in data set [1] (303.15 K), 1613.3 ± 2.4 m/s.

In the case of `CCCCOCCCN` [3-butoxy-1-propanamine] + O, the mass density came out at 996.79 ± 1 kg/m3 in data set [2] (283.15 K); 995.99 ± 1 kg/m3 in data set [2] (288.15 K); 994.84 ± 1 kg/m3 in data set [2] (293.15 K); 993.43 ± 0.99 kg/m3 in data set [2] (298.15 K); 991.89 ± 0.99 kg/m3 in data set [2] (303.15 K).
